How the values were obtained:
[1] = test system: MET; experiment: MET biochemical kinase assay; set-up: species or system human; concentration or dose not given beside the values
In short: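 In this format, tyrosine phosphorylation of plate-captured human MET is followed in vitro after compound addition in ATP/divalent-cation buffer, detected by anti-phosphotyrosine-HRP with TMB substrate.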

[2] = target: T1, FLK-1 receptor (Mus musculus, UniProt P35918); experiment: FLK-1 ELISA (kinase activity of the FLK-1 receptor in FLK-1/NIH3T3 cells, VEGF stimulated); type: cell-based
T1 construct: expressed in transfected cells; host or cells: NIH3T3 C7#3
In short: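 An ELISA using affinity-purified rabbit anti-FLK-1 antiserum on anti-rabbit IgG-coated plates measured VEGF-stimulated FLK-1 kinase activity. NIH3T3 C7#3 cells carrying FLK-1 were serum-starved (0.1% FBS) overnight, then exposed to compound (final 1:200 dilution, 0.5% DMSO) for two hours at 37 °C.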

T1 sequence (P35918 20-1345): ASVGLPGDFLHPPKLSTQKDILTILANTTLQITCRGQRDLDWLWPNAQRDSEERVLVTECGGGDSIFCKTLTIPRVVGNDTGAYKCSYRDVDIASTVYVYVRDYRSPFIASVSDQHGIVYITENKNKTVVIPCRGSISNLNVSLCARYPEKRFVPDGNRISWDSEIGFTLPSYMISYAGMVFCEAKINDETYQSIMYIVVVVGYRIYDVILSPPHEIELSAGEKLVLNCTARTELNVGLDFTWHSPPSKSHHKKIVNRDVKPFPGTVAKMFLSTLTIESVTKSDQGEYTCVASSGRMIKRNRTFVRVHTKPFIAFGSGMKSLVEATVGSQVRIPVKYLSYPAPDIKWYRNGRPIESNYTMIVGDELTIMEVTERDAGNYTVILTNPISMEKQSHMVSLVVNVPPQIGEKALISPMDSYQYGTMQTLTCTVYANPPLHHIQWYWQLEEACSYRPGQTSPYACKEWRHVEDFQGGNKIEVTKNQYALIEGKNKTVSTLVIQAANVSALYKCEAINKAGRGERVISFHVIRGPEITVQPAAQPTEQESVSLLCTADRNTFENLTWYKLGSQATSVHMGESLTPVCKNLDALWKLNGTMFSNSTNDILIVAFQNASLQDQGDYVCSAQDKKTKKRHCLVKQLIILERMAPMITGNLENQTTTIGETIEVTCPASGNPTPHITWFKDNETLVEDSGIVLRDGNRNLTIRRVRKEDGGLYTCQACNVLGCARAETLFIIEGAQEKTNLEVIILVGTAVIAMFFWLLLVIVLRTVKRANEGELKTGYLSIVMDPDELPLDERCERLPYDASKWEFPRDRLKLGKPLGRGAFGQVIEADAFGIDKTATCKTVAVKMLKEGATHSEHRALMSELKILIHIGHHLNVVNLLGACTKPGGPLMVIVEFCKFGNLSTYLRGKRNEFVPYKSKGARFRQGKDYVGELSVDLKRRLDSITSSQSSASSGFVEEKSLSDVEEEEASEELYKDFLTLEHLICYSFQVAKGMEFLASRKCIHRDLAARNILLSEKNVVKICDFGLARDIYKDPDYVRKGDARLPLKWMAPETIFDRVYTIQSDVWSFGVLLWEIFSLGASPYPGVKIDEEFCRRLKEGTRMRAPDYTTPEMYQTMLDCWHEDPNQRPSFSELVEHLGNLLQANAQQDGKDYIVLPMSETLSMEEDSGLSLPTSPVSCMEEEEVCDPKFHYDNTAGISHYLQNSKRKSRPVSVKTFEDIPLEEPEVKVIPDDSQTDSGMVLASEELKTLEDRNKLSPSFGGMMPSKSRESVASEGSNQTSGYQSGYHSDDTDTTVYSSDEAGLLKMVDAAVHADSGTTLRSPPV

Row | Compound | Met Kinase % Inhibition [1] | Fik Kinase %Inhibition [2]
1 | O=C1Nc2ccc(S(=O)(=O)Nc3ccc(C(F)(F)F)cc3)cc2C1=Cc1ccc(Br)s1 [10734/E11] | 67.1% | 19.2%
2 | CCOc1cccc(C=C2C(=O)Nc3ccc(S(=O)(=O)N4CCOCC4)cc32)c1O [10734/F02] | 55.0% | 6.2%
3 | O=C1Nc2ccc(S(=O)(=O)N3CCOCC3)cc2C1=Cc1cc(Cl)cc(Cl)c1O [10734/F03] | 86.8% | 4.2%
4 | O=C1Nc2ccc(S(=O)(=O)N3CCOCC3)cc2C1=Cc1cc(Cl)ccc1O [10734/F04] | 76.5% | -2.6%
5 | CCN(CC)c1ccc(C=C2C(=O)Nc3ccc(S(=O)(=O)N4CCOCC4)cc32)c(O)c1 [10734/F05] | 73.8% | 9.8%
6 | O=C1Nc2ccc(S(=O)(=O)N3CCOCC3)cc2C1=Cc1ccc([N+](=O)[O-])cc1 [10734/F06] | 64.2% | 11.0%
7 | O=C1Nc2ccc(S(=O)(=O)N3CCOCC3)cc2C1=Cc1cc(Br)cc(Br)c1O [10734/F07] | 95.7% | 6.6%
8 | O=C1Nc2ccc(S(=O)(=O)N3CCOCC3)cc2C1=Cc1cccc(F)c1O [10734/F08] | 66.3% | 4.8%
9 | O=C1Nc2ccc(S(=O)(=O)N3CCOCC3)cc2C1=Cc1ccc(O)c(Br)c1 [10734/F09] | 93.9% | -3.7%
10 | CC(C)(C)c1ccc(C=C2C(=O)Nc3ccc(S(=O)(=O)N4CCOCC4)cc32)cc1 [10734/F10] | 44.8% | 14.8%
11 | CCOc1cccc(C=C2C(=O)Nc3ccc(CCCl)cc32)c1O [10734/G02] | 63.6% | 1.5%
12 | O=C1Nc2ccc(CCCl)cc2C1=Cc1cc(Cl)cc(Cl)c1O [10734/G03] | 93.4% | 18.7%
13 | O=C1Nc2ccc(CCCl)cc2C1=Cc1cc(Cl)ccc1O [10734/G04] | 72.1% | -1.1%
14 | CCN(CC)c1ccc(C=C2C(=O)Nc3ccc(CCCl)cc32)c(O)c1 [10734/G05] | 57.7% | 7.4%
15 | O=C1Nc2ccc(CCCl)cc2C1=Cc1ccc([N+](=O)[O-])cc1 [10734/G06] | 43.1% | 16.5%
16 | O=C1Nc2ccc(CCCl)cc2C1=Cc1cc(Br)cc(Br)c1O [10734/G07] | 96.6% | 21.9%
17 | O=C1Nc2ccc(CCCl)cc2C1=Cc1cccc(F)c1O [10734/G08] | 82.2% | 11.6%
18 | O=C1Nc2ccc(CCCl)cc2C1=Cc1ccc(O)c(Br)c1 [10734/G09] | 84.7% | 8.5%
19 | CC(C)(C)c1ccc(C=C2C(=O)Nc3ccc(CCCl)cc32)cc1 [10734/G10] | 19.3% | 10.8%
20 | O=C1Nc2ccc(CCCl)cc2C1=Cc1ccc(Br)s1 [10734/G11] | 20.2% | 8.7%

From patent publication EP1247803A2, “Indolinone compounds suitable for modulation of protein kinases” (Sugen, Inc., priority 1996, dated 1998)
